Experimental data: patent US8846947B2, “Benzimidazoles and related analogs as sirtuin modulators” (GlaxoSmithKline LLC, priority 2008, dated 2014)

Molecular target: T1, SIRT1 (Homo sapiens, UniProt Q96EB6)
T1 sequence (Q96EB6 1-747): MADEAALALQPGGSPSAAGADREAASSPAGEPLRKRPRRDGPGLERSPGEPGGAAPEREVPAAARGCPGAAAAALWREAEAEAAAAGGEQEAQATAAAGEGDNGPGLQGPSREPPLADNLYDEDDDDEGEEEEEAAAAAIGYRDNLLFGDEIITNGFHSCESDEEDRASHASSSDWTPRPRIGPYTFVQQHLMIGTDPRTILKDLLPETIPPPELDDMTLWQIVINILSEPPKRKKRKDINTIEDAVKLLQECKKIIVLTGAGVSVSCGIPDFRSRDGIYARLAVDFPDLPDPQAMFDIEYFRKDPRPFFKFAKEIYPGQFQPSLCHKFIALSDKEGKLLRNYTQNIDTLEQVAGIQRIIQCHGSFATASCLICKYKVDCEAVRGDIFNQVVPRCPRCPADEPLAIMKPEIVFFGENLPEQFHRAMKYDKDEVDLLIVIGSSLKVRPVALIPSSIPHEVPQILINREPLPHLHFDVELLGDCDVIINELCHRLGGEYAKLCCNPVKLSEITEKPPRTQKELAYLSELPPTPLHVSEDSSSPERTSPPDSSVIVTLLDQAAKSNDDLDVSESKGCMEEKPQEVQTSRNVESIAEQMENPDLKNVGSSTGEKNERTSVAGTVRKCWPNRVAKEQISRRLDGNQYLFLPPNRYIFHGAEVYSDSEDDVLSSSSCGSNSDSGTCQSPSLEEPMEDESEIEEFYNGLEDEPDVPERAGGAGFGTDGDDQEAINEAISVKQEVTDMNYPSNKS
Test: Mass spectrometry based SIRT1 deacetylase activation assay (acetylated p53-derived peptide substrate)
Type: biochemical
Text: A mass spectrometry based assay was used to identify modulators of SIRT1 activity. The mass spectrometry based assay utilizes a peptide having 20 amino acid residues as follows: Ac-EE-K(biotin)-GQSTSSHSK(Ac)NleSTEG-K(5TMR)-EE-NH2 (SEQ ID NO: 1) wherein K(Ac) is an acetylated lysine residue and Nle is a norleucine. The peptide is labeled with the fluorophore 5TMR (excitation 540 nm/emission 580 nm) at the C-terminus. The sequence of the peptide substrate is based on p53 with several modifications. In addition, the methionine residue naturally present in the sequence was replaced with the norleucine because the methionine may be susceptible to oxidation during synthesis and purification.
The mass spectrometry assay is conducted as follows: 0.5 μM peptide substrate and 120 μM βNAD^+ is incubated with 10 nM SIRT1 for 25 minutes at 25° C. in a reaction buffer (50 mM Tris-acetate pH 8, 137 mM NaCl, 2.7 mM KCl, 1 mM MgCl2, 5 mM DTT, 0.05% BSA). Test compounds may be added to the reaction as described above. […] After the 25 minute incubation with SIRT1, 10 μL of 10% formic acid is added to stop the reaction. Reactions are sealed and frozen for later mass spec analysis. Determination of the mass of the substrate peptide allows for precise determination of the degree of acetylation (i.e. starting material) as compared to deacetylated peptide (product).
A control for inhibition of sirtuin activity is conducted by adding 1 μL of 500 mM nicotinamide as a negative control at the start of the reaction (e.g., permits determination of maximum sirtuin inhibition). A control for activation of sirtuin activity is conducted using 10 nM of sirtuin protein, with 1 μL of DMSO in place of compound, to determine the amount of deacetylation of the substrate at a given timepoint within the linear range of the assay. This timepoint is the same as that used for test compounds and, within the linear range, the endpoint represents a change in velocity.
For the above assay, SIRT1 protein was expressed and purified as follows. […] The protein was expressed by induction with 1 mM IPTG as an N-terminal His-tag fusion protein at 18° C. overnight and harvested at 30,000×g. Cells were lysed with lysozyme in lysis buffer (50 mM Tris-HCl, 2 mM Tris[2-carboxyethyl]phosphine (TCEP), 10 μM ZnCl2, 200 mM NaCl) and further treated with sonication for 10 min for complete lysis. The protein was purified over a Ni-NTA column (Amersham) and fractions containing pure protein were pooled, concentrated and run over a sizing column (Sephadex S200 26/60 global). The peak containing soluble protein was collected and run on an Ion-exchange column (MonoQ). Gradient elution (200 mM-500 mM NaCl) yielded pure protein. This protein was concentrated and dialyzed against dialysis buffer (20 mM Tris-HCl, 2 mM TCEP) overnight. The protein was aliquoted and frozen at −80° C. until further use.
Sirtuin modulating compounds that activated SIRT1 were identified using the assay described above and are shown below in Table 1. The EC1.5 values for the activating compounds are represented by A (EC1.5<1.0 uM), B (EC1.5 1-25 uM), C (EC1.5 >25 uM). The percent maximum fold activation is represented by A (Fold activation >200%) or B (Fold Activation <200%).

| EC1.5 | Fold Act. (percent maximum fold activation) | SMILES |
| --- | --- | --- |
| B (EC1.5 1-25 uM) | A (Fold activation >200%) | O=C(Nc1nccs1)c1cccc2[nH]c(-c3ccccc3)nc12 [Compound 200] |
| B (EC1.5 1-25 uM) | A (Fold activation >200%) | O=C(Nc1cnccn1)c1cccc2[nH]c(-c3ccccc3)nc12 [Compound 201] |
| A (EC1.5<1.0 uM) | A (Fold activation >200%) | O=C(Nc1nccs1)c1cccc2[nH]c(-c3cccc(C(F)(F)F)c3)nc12 [Compound 202] |
| A (EC1.5<1.0 uM) | A (Fold activation >200%) | O=C(Nc1cnccn1)c1cccc2[nH]c(-c3cccc(C(F)(F)F)c3)nc12 [Compound 203] |
| A (EC1.5<1.0 uM) | A (Fold activation >200%) | O=C(Nc1nccs1)c1cccc2[nH]c(-c3cccc(OC(F)(F)F)c3)nc12 [Compound 204] |
| A (EC1.5<1.0 uM) | A (Fold activation >200%) | O=C(Nc1cnccn1)c1cccc2[nH]c(-c3cccc(OC(F)(F)F)c3)nc12 [Compound 205] |
| B (EC1.5 1-25 uM) | A (Fold activation >200%) | Cc1csc(NC(=O)c2cccc3[nH]c(-c4cccc(C(F)(F)F)c4)nc23)n1 [Compound 206] |
| B (EC1.5 1-25 uM) | A (Fold activation >200%) | O=C(Nc1cc[nH]n1)c1cccc2[nH]c(-c3cccc(C(F)(F)F)c3)nc12 [Compound 207] |
| A (EC1.5<1.0 uM) | A (Fold activation >200%) | O=C(Nc1nccs1)c1cccc2[nH]c(-c3ccccc3C(F)(F)F)nc12 [Compound 208, N-(thiazol-2-yl)-2-(2-(trifluoromethyl)phenyl)-1H-benzo[d]imidazole-4-carboxamide] |
| C (EC1.5 >25 uM) | B (Fold Activation <200%) | O=C(Nc1nccs1)c1cccc2[nH]c(-c3ccc(C(F)(F)F)cc3)nc12 [Compound 209] |
| B (EC1.5 1-25 uM) | B (Fold Activation <200%) | O=C(Nc1nccs1)c1cccc2[nH]c(-c3cc(F)cc(C(F)(F)F)c3)nc12 [Compound 210] |
| B (EC1.5 1-25 uM) | A (Fold activation >200%) | N#Cc1cccc(-c2nc3c(C(=O)Nc4nccs4)cccc3[nH]2)c1 [Compound 211] |
| B (EC1.5 1-25 uM) | A (Fold activation >200%) | O=C(Nc1nccs1)c1cccc2[nH]c(-c3cccc(F)c3)nc12 [Compound 212] |
| B (EC1.5 1-25 uM) | A (Fold activation >200%) | O=C(Nc1nccs1)c1cccc2[nH]c(-c3cc(F)cc(F)c3)nc12 [Compound 213] |
| C (EC1.5 >25 uM) | B (Fold Activation <200%) | O=C(Nc1nccs1)c1cccc2[nH]c(-c3ccc(F)c(F)c3)nc12 [Compound 214] |
| B (EC1.5 1-25 uM) | A (Fold activation >200%) | O=C(Nc1nccs1)c1cccc2[nH]c(-c3ccccn3)nc12 [Compound 215] |
| C (EC1.5 >25 uM) | B (Fold Activation <200%) | O=C(Nc1nccs1)c1cccc2[nH]c(-c3ccc(F)c(C(F)(F)F)c3)nc12 [Compound 216] |
| C (EC1.5 >25 uM) | B (Fold Activation <200%) | O=C(Nc1nccs1)c1cccc2[nH]c(-c3cccc(C(F)(F)F)c3F)nc12 [Compound 217] |

| EC1.5 | Fold Act. (percent maximum fold activation) | SMILES |
| --- | --- | --- |
| B (EC1.5 1-25 uM) | A (Fold activation >200%) | O=C(Nc1nccs1)c1cccc2[nH]c(-c3cc(C(F)(F)F)ccc3F)nc12 [Compound 218] |
| B (EC1.5 1-25 uM) | A (Fold activation >200%) | O=C(Nc1nccs1)c1cccc2[nH]c(-c3cccc(Cl)c3)nc12 [Compound 219] |
| B (EC1.5 1-25 uM) | A (Fold activation >200%) | O=C(Nc1nccs1)c1cccc2[nH]c(-c3cc(F)cc(Cl)c3)nc12 [Compound 220] |
| C (EC1.5 >25 uM) | B (Fold Activation <200%) | O=C(Nc1nccs1)c1cccc2[nH]c(-c3ccc4c(c3)OC(F)(F)O4)nc12 [Compound 221] |
| C (EC1.5 >25 uM) | B (Fold Activation <200%) | O=C(Nc1nccs1)c1cccc2[nH]c(-c3cccc(-c4ccccc4)c3)nc12 [Compound 222] |
| C (EC1.5 >25 uM) | B (Fold Activation <200%) | O=C(Nc1nccs1)c1cccc2[nH]c(-c3ccc(-c4ccccc4)cc3)nc12 [Compound 223] |
| B (EC1.5 1-25 uM) | A (Fold activation >200%) | O=C(Nc1nccs1)c1cccc2[nH]c(-c3cccc(Oc4ccccc4)c3)nc12 [Compound 224] |
| B (EC1.5 1-25 uM) | A (Fold activation >200%) | O=C(Nc1nccs1)c1cccc2[nH]c(-c3cccc(N4CCCCC4)c3)nc12 [Compound 225] |
| A (EC1.5<1.0 uM) | A (Fold activation >200%) | O=C(Nc1nccs1)c1cccc2[nH]c(-c3cccc(N4CCOCC4)c3)nc12 [Compound 226] |
| B (EC1.5 1-25 uM) | A (Fold activation >200%) | O=C(Nc1nccs1)c1cccc2[nH]c(-c3cccnc3)nc12 [Compound 227] |
| B (EC1.5 1-25 uM) | A (Fold activation >200%) | O=C(Nc1nccs1)c1cccc2[nH]c(-c3ccc4ccccc4c3)nc12 [Compound 228] |
| B (EC1.5 1-25 uM) | A (Fold activation >200%) | O=C(Nc1nccs1)c1cccc2[nH]c(-c3ccoc3)nc12 [Compound 229] |
| A (EC1.5<1.0 uM) | B (Fold Activation <200%) | Cc1cc(-c2nc3c(C(=O)Nc4nccs4)cccc3[nH]2)no1 [Compound 230] |
| A (EC1.5<1.0 uM) | A (Fold activation >200%) | O=C(Nc1nccs1)c1cccc2[nH]c(-c3ccnc(Cl)c3)nc12 [Compound 231] |
| B (EC1.5 1-25 uM) | A (Fold activation >200%) | Cc1nnc(NC(=O)c2cccc3[nH]c(-c4cccc(C(F)(F)F)c4)nc23)s1 [Compound 232] |
| B (EC1.5 1-25 uM) | A (Fold activation >200%) | O=C(Nc1ccccn1)c1cccc2[nH]c(-c3cccc(C(F)(F)F)c3)nc12 [Compound 233] |
| A (EC1.5<1.0 uM) | A (Fold activation >200%) | O=C(Nc1cccnc1)c1cccc2[nH]c(-c3cccc(C(F)(F)F)c3)nc12 [Compound 234] |
